Measured values: US20260139007A1, “EPHA4 ANTAGONISTS AND USES THEREOF” (SANFORD BURNHAM PREBYS MEDICAL DISCOVERY INSTITUTE, priority 2023, published 2026)
Several values for one entry are separate records, joined by “and”; a condition that tells them apart may be missing. Identical values can stand only once. Like-named read-outs stand apart in the source and are kept apart here. Marks after values point to notes of the source that are not given here. Numbered stars: 1 amine (or outer) side, 2 acyl side, 3 side chain; on linkers, the order of the positions; unused ones are H or OH. Bridge positions count the residues as written; N and C are the ends. Square brackets hold non-standard residues; d marks the D form. Side chains are listed from the residue outwards. Peptide text beside a SMILES is read from it. * marks the point of attachment. γGlu = O=C(O)[C@H](CCC(=O)[*:2])N[*:1]; βAsp = O=C(O)[C@H](CC(=O)[*:2])N[*:1]; Palmitoyl = CCCCCCCCCCCCCCCC(=O)*; Lauroyl = CCCCCCCCCCCC(=O)*; Octanoyl = CCCCCCCC(=O)*; βAla = NCCC(=O)O

Key:
EphA4 Fc [1] = test: ELISA inhibition of ephrin-A5 AP binding to EphA4 Fc in the presence of HSA, BSA or methyl-β-cyclodextrin; conditions: for effect of HSA on potency: presence vs absence of 40 mg/mL HSA, tested in parallel; for IC50: read-out: IC50 ± SE (n) by ELISA with HSA or BSA, 40 mg/mL delipidated HSA
Excerpt: To determine whether albumin binding to the lipidated compounds affects their ability to bind EphA4, the effects of delipidated human serum albumin (HSA) on the inhibitory potency of some of the compounds were examined.

EphA4 Fc [2] = test: ELISA measuring inhibition of ephrin-A5 AP binding to immobilized EphA4 Fc; set-up: species or system human or mouse
[3] = In vivo half-life: active compound remaining in mouse blood, deduced from apparent IC50 of plasma in the EphA4-ephrinA5 ELISA; conditions: for half-life: in vivo, read-out: In vivo half-life (converted)
Procedure: To examine the persistence of compounds in the blood circulation, an approach was devised to determine the concentration of compound in mouse blood by taking advantage of the ELISA measuring inhibition of EphA4-ephrinA5 interaction.
Lipidated compounds dissolved in DMSO were diluted in […] PBS (to a 5% final DMSO concentration) or in […] PBS supplemented with 20 or 40 mg/mL BSA or 6.5 mM methyl-β-cyclodextrin for intravenous or intraperitoneal injection. Neutral pH of the compound solution was verified before injection. PEGylated compounds were dissolved in […] PBS before intraperitoneal injection. Peptides were sterile filtered before administration. Blood from each mouse was collected at 3 different time points after compound injection, the first 2 times by retro-orbital bleeding and the third time by terminal cardiac bleeding under deep anesthesia. Red blood cells were removed by centrifugation from blood treated with heparin and the resulting plasma was frozen in aliquots.
For each time point, a dose-response curves by measuring inhibition of EphA4-ephrinA5 binding at different plasma dilutions was obtained.

[4] = inhibition of ephrin-A5 AP binding to EphA4 Fc, averages of all experiments, read-out: IC50 ± SE (n) by ELISA
[5] = mouse, ip, mouse, IP (intraperitoneal administration)
[6] = mouse, iv, mouse, IV (intravenous administration)

CC(C)[C@@H]1NC(=O)[C@@H](NC(=O)[C@H](Cc2ccc(O)cc2)NC(=O)[C@@H]2CCCN2C(=O)[C@H](C)N)CSSC[C@@H](C(N)=O)NC(=O)[C@H](CO)NC(=O)[C@H](Cc2c[nH]c3ccccc23)NC(=O)[C@H](CO)NC(=O)CCNC(=O)[C@H](CCCCN)NC(=O)[C@H](Cc2ccc(O)cc2)NC1=O [Compound 1, APYCVYKβASWSC-NH2] (H-APYCVYK[βAla]SWSC-NH2; disulfide 4-12)
effect of HSA on potency (EphA4 Fc [1]): only a very small effect | IC50 (EphA4 Fc [1]): 55 ± 13 nM | IC50 (EphA4 Fc [2]; [4]): 67 ± 10 nM

CC(C)[C@@H]1NC(=O)[C@@H](NC(=O)[C@H](Cc2ccc(O)cc2)NC(=O)[C@@H]2CCCN2C(=O)[C@H](C)N)CSSC[C@@H](C(=O)NCC(=O)NCC(=O)N[C@@H](CCCCN)C(=O)NCC(N)=O)NC(=O)[C@H](CO)NC(=O)[C@H](Cc2c[nH]c3ccccc23)NC(=O)[C@H](CO)NC(=O)CCNC(=O)[C@H](CCCNC(=N)N)NC(=O)[C@H](Cc2ccc(O)cc2)NC1=O [Compound 2]
effect of HSA on potency (EphA4 Fc [1]): only a very small effect | potency compared with APY-d2 (EphA4 Fc [2]; tested in parallel in the same ELISA): not significantly different from that for APY-d2

CCCCCCCC(=O)NCCCC[C@@H]1NC(=O)[C@H](Cc2ccc(O)cc2)NC(=O)[C@H](C(C)C)NC(=O)[C@@H](NC(=O)[C@H](Cc2ccc(O)cc2)NC(=O)[C@@H]2CCCN2C(=O)CCN)CSSC[C@@H](C(N)=O)NC(=O)[C@H](CO)NC(=O)[C@H](Cc2c[nH]c3ccccc23)NC(=O)[C@H](CO)NC(=O)CCNC1=O [Compound 4, βAPYCVYK(octanoyl)βASWSC-NH2] (H-[βAla]PYCVYK(Octanoyl)[βAla]SWSC-NH2; disulfide 4-12)
IC50 (EphA4 Fc [1]): 100 ± 30 nM

CCCCCCCC(=O)NCCCC[C@H](NC(=O)CNC(=O)CNC(=O)[C@@H]1CSSC[C@H](NC(=O)[C@H](Cc2ccc(O)cc2)NC(=O)[C@@H]2CCCN2C(=O)CCN)C(=O)N[C@@H](C(C)C)C(=O)N[C@@H](Cc2ccc(O)cc2)C(=O)N[C@@H](CCCNC(=N)N)C(=O)NCCC(=O)N[C@@H](CO)C(=O)N[C@@H](Cc2c[nH]c3ccccc23)C(=O)N[C@@H](CO)C(=O)N1)C(=O)NCC(N)=O [Compound 7]
IC50 (EphA4 Fc [1]): 110 ± 30 nM | IC50 (EphA4 Fc [2]; [4]): 34 ± 6 nM

CCCCCCCCCCCC(=O)NCCCC[C@@H]1NC(=O)[C@H](Cc2ccc(O)cc2)NC(=O)[C@H](C(C)C)NC(=O)[C@@H](NC(=O)[C@H](Cc2ccc(O)cc2)NC(=O)[C@@H]2CCCN2C(=O)CCN)CSSC[C@@H](C(N)=O)NC(=O)[C@H](CO)NC(=O)[C@H](Cc2c[nH]c3ccccc23)NC(=O)[C@H](CO)NC(=O)CCNC1=O [Compound 8, βAPYCVYK(lauroyl)βASWSC-NH2] (H-[βAla]PYCVYK(Lauroyl)[βAla]SWSC-NH2; disulfide 4-12)
IC50 (EphA4 Fc [2]; [4]): 390 ± 80 nM

CCCCCCCCCCCC(=O)N[C@@H](CC(=O)NCCCC[C@@H]1NC(=O)[C@H](Cc2ccc(O)cc2)NC(=O)[C@H](C(C)C)NC(=O)[C@@H](NC(=O)[C@H](Cc2ccc(O)cc2)NC(=O)[C@@H]2CCCN2C(=O)CCN)CSSC[C@@H](C(N)=O)NC(=O)[C@H](CO)NC(=O)[C@H](Cc2c[nH]c3ccccc23)NC(=O)[C@H](CO)NC(=O)CCNC1=O)C(=O)O [Compound 10, βAPYCVYK(lauroyl-βD)βASWSC-NH2] (H-[βAla]PYCVYK([βAsp-Lauroyl])[βAla]SWSC-NH2; disulfide 4-12)
IC50 (EphA4 Fc [2]; [4]): 110 ± 10 nM

CCCCCCCCCCCC(=O)N[C@@H](CCC(=O)NCCCC[C@@H]1NC(=O)[C@H](Cc2ccc(O)cc2)NC(=O)[C@H](C(C)C)NC(=O)[C@@H](NC(=O)[C@H](Cc2ccc(O)cc2)NC(=O)[C@@H]2CCCN2C(=O)CCN)CSSC[C@@H](C(N)=O)NC(=O)[C@H](CO)NC(=O)[C@H](Cc2c[nH]c3ccccc23)NC(=O)[C@H](CO)NC(=O)CCNC1=O)C(=O)O [Compound 11, βAPYCVYK(lauroyl-γE)βASWSC-NH2] (H-[βAla]PYCVYK([γGlu-Lauroyl])[βAla]SWSC-NH2; disulfide 4-12)
half-life [3, 5]: 30 to 60 min | IC50 (EphA4 Fc [2]; [4]): 84 ± 13 nM

CCCCCCCCCCCC(=O)N[C@@H](CC(=O)NCCCC[C@H](NC(=O)CNC(=O)CNC(=O)[C@@H]1CSSC[C@H](NC(=O)[C@H](Cc2ccc(O)cc2)NC(=O)[C@@H]2CCCN2C(=O)CCN)C(=O)N[C@@H](C(C)C)C(=O)N[C@@H](Cc2ccc(O)cc2)C(=O)N[C@@H](CCCNC(=N)N)C(=O)NCCC(=O)N[C@@H](CO)C(=O)N[C@@H](Cc2c[nH]c3ccccc23)C(=O)N[C@@H](CO)C(=O)N1)C(=O)NCC(N)=O)C(=O)O [Compound 13]
IC50 (EphA4 Fc [2]; [4]): 49 ± 11 nM

CCCCCCCCCCCC(=O)N[C@@H](CCC(=O)NCCCC[C@H](NC(=O)CNC(=O)CNC(=O)[C@@H]1CSSC[C@H](NC(=O)[C@H](Cc2ccc(O)cc2)NC(=O)[C@@H]2CCCN2C(=O)CCN)C(=O)N[C@@H](C(C)C)C(=O)N[C@@H](Cc2ccc(O)cc2)C(=O)N[C@@H](CCCNC(=N)N)C(=O)NCCC(=O)N[C@@H](CO)C(=O)N[C@@H](Cc2c[nH]c3ccccc23)C(=O)N[C@@H](CO)C(=O)N1)C(=O)NCC(N)=O)C(=O)O [Compound 14]
FOLD INCREASE IN APPARENTIC IC COMPARED TO CONTROL ([3]; 0 minutes (control)): 1.0 fold | IC50 ([3]; 0 minutes: control, compound diluted in plasma in vitro): 81 nM | % PEPTIDE 14 REMAINING IN THE BLOOD ([3]; 0 minutes, ESTIMATED (all injected compound in 2.5 mL blood)): 100* % | FOLD INCREASE IN APPARENTIC IC COMPARED TO CONTROL ([3]; 60 minutes after intraperitoneal injection): 2.1 fold | % PEPTIDE 14 REMAINING IN THE BLOOD ([3]; 60 minutes after intraperitoneal injection, MEASURED): 48.2% | FOLD INCREASE IN APPARENTIC IC COMPARED TO CONTROL ([3]; 120 minutes after intraperitoneal injection): 5 fold and 4.6 fold | % PEPTIDE 14 REMAINING IN THE BLOOD ([3]; 120 minutes after intraperitoneal injection, MEASURED): 20% and 21.8% | FOLD INCREASE IN APPARENTIC IC COMPARED TO CONTROL ([3]; 240 minutes after intraperitoneal injection): 22.5 fold | % PEPTIDE 14 REMAINING IN THE BLOOD ([3]; 240 minutes after intraperitoneal injection, MEASURED): 4.5% | half-life [3, 5]: 30 to 60 min | half-life [3, 6]: 30 to 42 min | IC50 ([3]; plasma 60 minutes after intraperitoneal injection, mouse): 168 nM | IC50 ([3]; plasma 120 minutes after intraperitoneal injection, mouse): 371 nM | IC50 ([3]; plasma 240 minutes after intraperitoneal injection, mouse): 1820 nM | IC50 (EphA4 Fc [2]; [4]): 52 ± 10 nM

CCCCCCCCCCCCCCCC(=O)N[C@@H](CCC(=O)NCCCC[C@@H]1NC(=O)[C@H](Cc2ccc(O)cc2)NC(=O)[C@H](C(C)C)NC(=O)[C@@H](NC(=O)[C@H](Cc2ccc(O)cc2)NC(=O)[C@@H]2CCCN2C(=O)CCN)CSSC[C@@H](C(N)=O)NC(=O)[C@H](CO)NC(=O)[C@H](Cc2c[nH]c3ccccc23)NC(=O)[C@H](CO)NC(=O)CCNC1=O)C(=O)O [Compound 17, βAPYCVYK(palmitoyl-γE)BASWSC-NH2] (H-[βAla]PYCVYK([γGlu-Palmitoyl])[βAla]SWSC-NH2; disulfide 4-12)
IC50 (EphA4 Fc [2]; [4]): 2300 nM

CCCCCCCCCCCCCCCC(=O)N[C@@H](CCC(=O)NCCCC[C@H](NC(=O)CNC(=O)CNC(=O)[C@@H]1CSSC[C@H](NC(=O)[C@H](Cc2ccc(O)cc2)NC(=O)[C@@H]2CCCN2C(=O)CCN)C(=O)N[C@@H](C(C)C)C(=O)N[C@@H](Cc2ccc(O)cc2)C(=O)N[C@@H](CCCNC(=N)N)C(=O)NCCC(=O)N[C@@H](CO)C(=O)N[C@@H](Cc2c[nH]c3ccccc23)C(=O)N[C@@H](CO)C(=O)N1)C(=O)NCC(N)=O)C(=O)O [Compound 18]
half-life [3, 5]: 60 to 90 min | half-life [3, 6]: ~48 min | IC50 (EphA4 Fc [2]; [4]): 520 ± 80 nM

CCCCCCCCCCCCCCCC(=O)N[C@@H](CCC(=O)N[C@@H](CCC(=O)NCCCC[C@H](NC(=O)CNC(=O)CNC(=O)[C@@H]1CSSC[C@H](NC(=O)[C@H](Cc2ccc(O)cc2)NC(=O)[C@@H]2CCCN2C(=O)CCN)C(=O)N[C@@H](C(C)C)C(=O)N[C@@H](Cc2ccc(O)cc2)C(=O)N[C@@H](CCCNC(=N)N)C(=O)NCCC(=O)N[C@@H](CO)C(=O)N[C@@H](Cc2c[nH]c3ccccc23)C(=O)N[C@@H](CO)C(=O)N1)C(=O)NCC(N)=O)C(=O)O)C(=O)O [Compound 19]
half-life [3, 5]: 60 to 90 min | half-life [3, 6]: ~48 min | less potent than compound 15 (EphA4 Fc [2]): 5-6 fold | IC50 (EphA4 Fc [2]; [4]): 160 ± 30 nM | better potency compared to compound 18 (single γGlu) (EphA4 Fc [2]; two γGlu residues vs single γGlu, palmitoyl): ~3 fold

CCCCCCCCCCCCCCCC(=O)N[C@@H](CCC(=O)N[C@@H](CCC(=O)NCCCC[C@H](NC(=O)[C@H](CO)NC(=O)CNC(=O)CNC(=O)CNC(=O)[C@@H]1CSSC[C@H](NC(=O)[C@H](Cc2ccc(O)cc2)NC(=O)[C@@H]2CCCN2C(=O)CCN)C(=O)N[C@@H](C(C)C)C(=O)N[C@@H](Cc2ccc(O)cc2)C(=O)N[C@@H](CCCNC(=N)N)C(=O)NCCC(=O)N[C@@H](CO)C(=O)N[C@@H](Cc2c[nH]c3ccccc23)C(=O)N[C@@H](CO)C(=O)N1)C(=O)NCC(N)=O)C(=O)O)C(=O)O [Compound 20] (H-[βAla]PYCVYR[βAla]SWSCGGGSK([γGlu-γGlu-Palmitoyl])G-NH2; disulfide 4-12)
IC50 (EphA4 Fc [2]; [4]): 190 ± 20 nM

βAPYCVYRβASWSC-linker2-PEG (XPYCVYRXSWSCXXK; not fully specified; non-natural residues; cyclised or stapled) [APY-d3-PEG2]
potency compared with APY-d3 (EphA4 Fc [2]; ELISA inhibition of EphA4-ephrin-A5 interaction): several fold less potent than non-PEGylated APY-d3 | IC50 (EphA4 Fc [2]; ELISA inhibition of EphA4-ephrin-A5 interaction, read-out: IC50 (approximate)): ~80 nM
